The record followed here is patent US9067943B2, “[1,2,3]triazolo[4,5-D]pyrimidine derivatives” (priority 2011, dated 2015).

The target of one assay is T1, human CB1 receptors (Homo sapiens, UniProt P21554).
T1 construct: expressed in transfected cells; host or cells: CHO cells
The assay can be described thus: cAMP assay. In kind it is cell-based. Here is the method: (§1) CHO cells expressing human CB1 or CB2 receptors are seeded 17-24 hours prior to the experiment 50.000 cells per well in a black 96 well plate with flat clear bottom (Corning Costar #3904) in DMEM (Invitrogen No. 31331), 1×HT supplement, with 10% fetal calf serum and incubated at 5% CO2 and 37° C. in a humidified incubator. The growth medium was exchanged with Krebs Ringer Bicarbonate buffer with 1 mM IBMX and incubated at 30° C. for 30 min. Compounds were added to a final assay volume of 100 μl and incubated for 30 min at 30° C. Using the cAMP-Nano-TRF detection kit the assay (Roche Diagnostics) was stopped by the addition of 50 μl lysis reagent (Tris, NaCl, 1.5% Triton X100, 2.5% NP40, 10% NaN3) and 50 μl detection solutions (20 μM mAb Alexa700-cAMP 1:1, and 48 μM Ruthenium-2-AHA-cAMP) and shaken for 2 h at room temperature. The time-resolved energy transfer is measured by a TRF reader (Evotec Technologies GmbH), equipped with a ND:YAG laser as excitation source. The plate is measured twice with the excitation at 355 nm and at the emission with a delay of 100 ns and a gate of 100 ns, total exposure time 10 s at 730 (bandwidth 30 nm) or 645 nm (bandwidth 75 nm), respectively. The FRET signal is calculated as follows: FRET=T730-Alexa730-P(T645-B645) with P=Ru730-B730/Ru645-B645, where T730 is the test well measured at 730 nM, T645 is the test well measured at 645 nm, B730 and B645 are the buffer controls at 730 nm and 645 nm, respectively. cAMP content is determined from the function of a standard curve spanning from 10 μM to 0.1 nM cAMP.
(§2) EC50 values were determined using Activity Base analysis (ID Business Solution, Limited). The EC50 values for a wide range of cannabinoid agonists generated from this assay were in agreement with the values published in the scientific literature.
A general note: Cyclic AMP is a second messenger, typically raised through Gs and lowered through Gi signalling.

The target of the next assay is T2, human CB2 receptors (Homo sapiens, UniProt P34972).
T2 construct: expressed in transfected cells; host or cells: CHO cells
T2 sequence (P34972 whole entry): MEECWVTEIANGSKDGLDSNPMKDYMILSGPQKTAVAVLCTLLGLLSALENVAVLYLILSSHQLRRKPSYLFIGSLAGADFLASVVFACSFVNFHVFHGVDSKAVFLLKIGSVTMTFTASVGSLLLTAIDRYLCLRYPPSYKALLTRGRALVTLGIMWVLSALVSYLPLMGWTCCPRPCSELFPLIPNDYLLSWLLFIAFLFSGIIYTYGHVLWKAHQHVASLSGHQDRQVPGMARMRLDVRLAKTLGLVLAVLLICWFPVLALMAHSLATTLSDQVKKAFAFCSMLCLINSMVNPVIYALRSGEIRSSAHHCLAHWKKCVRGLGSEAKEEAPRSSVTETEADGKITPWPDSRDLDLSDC
Briefly: cAMP assay. Format: cell-based. How it is done: as §1, §2

[1] abbreviates: functional cAMP assay, CHO cells expressing human CB2, read-out: human CB2 EC50.

Read-outs that look alike come from different tables or passages of the source. Where only a bound is given, the exact number is not on record here.

T1 sequence (P21554 whole entry): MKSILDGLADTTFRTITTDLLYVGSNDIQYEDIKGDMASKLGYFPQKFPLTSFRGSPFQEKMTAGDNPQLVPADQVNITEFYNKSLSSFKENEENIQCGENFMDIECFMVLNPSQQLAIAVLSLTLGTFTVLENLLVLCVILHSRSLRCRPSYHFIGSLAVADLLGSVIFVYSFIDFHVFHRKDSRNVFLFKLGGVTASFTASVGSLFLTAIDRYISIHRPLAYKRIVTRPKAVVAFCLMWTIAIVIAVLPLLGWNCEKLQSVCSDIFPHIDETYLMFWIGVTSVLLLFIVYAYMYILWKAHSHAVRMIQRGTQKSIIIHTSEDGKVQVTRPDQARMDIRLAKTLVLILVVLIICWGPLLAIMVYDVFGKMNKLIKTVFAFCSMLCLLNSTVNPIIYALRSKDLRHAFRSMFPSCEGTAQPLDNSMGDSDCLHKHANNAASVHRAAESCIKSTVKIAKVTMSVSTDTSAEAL

In general, EC50 refers to the concentration needed to bring the measured effect to its halfway point. For `CC(C)(C)c1nc(N2CCC(F)(F)C2)c2nn(C3CS(=O)(=O)C3)nc2n1` [Example 62, 5-tert-Butyl-7-(3,3-difluoro-pyrrolidin-1-yl)-2-(1,1-dioxo-1λ6-thietan-3-yl)-2H-[1,2,3]triazolo[4,5-d]pyrimidine], the EC50 is greater than 10000 nM at human CB1 receptors and 5.8 nM on human CB2 receptors.

For `CC(C)(C)c1nc(N2CCC(F)(F)C2)c2nn(C3CCS(=O)(=O)C3)nc2n1` (stereo not drawn) [Example 63, 5-tert-Butyl-7-(3,3-difluoro-pyrrolidin-1-yl)-2-(1,1-dioxo-tetrahydro-1λ6-thiophen-3-yl)-2H-[1,2,3]triazolo[4,5-d]pyrimidine], the values for the EC50 on human CB1 receptors and at human CB2 receptors were greater than 10000 nM and 4 nM, respectively.

In the case of `Cc1nc(Cn2nc3nc(C(C)(C)C)nc(N4CCC(F)(F)C4)c3n2)no1` [Example 67, 5-tert-Butyl-7-(3,3-difluoro-pyrrolidin-1-yl)-2-(5-methyl-[1,2,4]oxadiazol-3-ylmethyl)-2H-[1,2,3]triazolo[4,5-d]pyrimidine], the results for the EC50 on human CB1 receptors and at human CB2 receptors were 1630 nM and 1.3 nM, respectively.

`CC(C)(C)c1nc(N2CCC(F)(F)C2)c2nn(Cc3c[nH]nc3C(F)(F)F)nc2n1` [Example 72, 5-tert-Butyl-7-(3,3-difluoro-pyrrolidin-1-yl)-2-(3-trifluoromethyl-1H-pyrazol-4-ylmethyl)-2H-[1,2,3]triazolo[4,5-d]pyrimidine]: the EC50 at human CB1 receptors was greater than 10000 nM; at human CB2 receptors, 11.8 nM.

`CC(C)(C)c1nc(N2CC[C@@](C)(O)C2)c2nn(CCC(F)(F)F)nc2n1` [Example 132-b, (R)-1-[5-tert-Butyl-2-(3,3,3-trifluoro-propyl)-2H-[1,2,3]triazolo[4,5-d]pyrimidin-7-yl]-3-methyl-pyrrolidin-3-ol]: the results for the EC50 at human CB1 receptors and at human CB2 receptors were greater than 10000 nM and 69.8 nM, respectively.

In the case of `C[C@H](Oc1nc(N2CCC(F)(F)C2)c2nn(Cc3ccccc3S(C)(=O)=O)nc2n1)C(F)(F)F` [Example 116, 7-(3,3-Difluoro-pyrrolidin-1-yl)-2-(2-methanesulfonyl-benzyl)-5-((S)-2,2,2-trifluoro-1-methyl-ethoxy)-2H-[1,2,3]triazolo[4,5-d]pyrimidine], the EC50 is greater than 10000 nM at human CB1 receptors and 23.1 nM on human CB2 receptors.

For the compound `CC(C)(C)c1nc(N2CC[C@@](C)(O)C2)c2nn(Cc3nnnn3C3CC3)nc2n1` [Example 133-b, (R)-1-[5-tert-Butyl-2-(1-cyclopropyl-1H-tetrazol-5-ylmethyl)-2H-[1,2,3]triazolo[4,5-d]pyrimidin-7-yl]-3-methyl-pyrrolidin-3-ol], the EC50 at human CB1 receptors is greater than 10000 nM; on human CB2 receptors (setting [1]), 547 nM.

`Cc1nonc1Cn1nc2nc(C(C)(C)C)nc(N3CC[C@](C)(O)C3)c2n1` [Example 131-a, (S)-1-[5-tert-Butyl-2-(4-methyl-furazan-3-ylmethyl)-2H-[1,2,3]triazolo[4,5-d]pyrimidin-7-yl]-3-methyl-pyrrolidin-3-ol]: the EC50 was greater than 10000 nM on human CB1 receptors and 10.2 nM at human CB2 receptors.

On to `Cn1nnnc1Cn1nc2nc(NC(C)(C)C)nc(N3CCC(F)(F)C3)c2n1` [Example 139, tert-Butyl-[7-(3,3-difluoro-pyrrolidin-1-yl)-2-(1-methyl-1H-tetrazol-5-ylmethyl)-2H-[1,2,3]triazolo[4,5-d]pyrimidin-5-yl]-amine], for which the EC50 is greater than 10000 nM at human CB1 receptors and 28.1 nM on human CB2 receptors.

“5-tert-Butyl-2-(1-cyclopropyl-1H-tetrazol-5-ylmethyl)-7-(2-oxa-6-aza-spiro[3.3]hept-6-yl)-2H-[1,2,3]triazolo[4,5-d]pyrimidine [Example 105]”: the EC50 is greater than 10000 nM at human CB1 receptors (functional cAMP assay, head printed human CB2 (probably human CB1), read-out: human CB2 EC50) and 110 nM on human CB2 receptors (setting [1]).

`CC(C)(C)c1nc(N2CCC(F)(F)C2)c2nn(Cc3cccnc3Cl)nc2n1` [Example 34, 5-tert-Butyl-2-(2-chloro-pyridin-3-ylmethyl)-7-(3,3-difluoro-pyrrolidin-1-yl)-2H-[1,2,3]triazolo[4,5-d]pyrimidine]: the EC50 on human CB1 receptors was greater than 10000 nM; at human CB2 receptors, 0.5 nM.

For `CC(C)(C)Nc1nc(N2CCC(F)(F)C2)c2nn(Cc3ccccc3C(F)(F)F)nc2n1` [Example 136, tert-Butyl-[7-(3,3-difluoro-pyrrolidin-1-yl)-2-(2-trifluoromethyl-benzyl)-2H-[1,2,3]triazolo[4,5-d]pyrimidin-5-yl]-amine], the EC50 is greater than 10000 nM at human CB1 receptors and 35 nM at human CB2 receptors.

In the case of `Cn1nnnc1Cn1nc2nc(OCC(C)(C)C)nc(N3CCC(F)(F)C3)c2n1` [Example 112, 7-(3,3-Difluoro-pyrrolidin-1-yl)-5-(2,2-dimethyl-propoxy)-2-(1-methyl-1H-tetrazol-5-ylmethyl)-2H-[1,2,3]triazolo[4,5-d]pyrimidine], the EC50 was greater than 10000 nM at human CB1 receptors and 30.9 nM on human CB2 receptors.

Regarding `Cn1ncnc1Cn1nc2nc(C(C)(C)C)nc(N3CCC(F)(F)C3)c2n1` [Example 69, 5-tert-Butyl-7-(3,3-difluoro-pyrrolidin-1-yl)-2-(2-methyl-2H-[1,2,4]triazol-3-ylmethyl)-2H-[1,2,3]triazolo[4,5-d]pyrimidine], the results for the EC50 on human CB1 receptors and at human CB2 receptors were greater than 10000 nM and 1.1 nM, respectively.

For the compound `Cn1nnnc1Cn1nc2nc(C(C)(C)C)nc(N3CCC(F)(F)C3)c2n1` [Example 68, 5-tert-Butyl-7-(3,3-difluoro-pyrrolidin-1-yl)-2-(1-methyl-1H-tetrazol-5-ylmethyl)-2H-[1,2,3]triazolo[4,5-d]pyrimidine], the EC50 is greater than 10000 nM at human CB1 receptors and 2.3 nM at human CB2 receptors.

For `CC(C)(C)c1nc(N2CCC(F)(F)C2)c2nn(Cc3c(F)cccc3Cl)nc2n1` [Example 14, 5-tert-Butyl-2-(2-chloro-6-fluoro-benzyl)-7-(3,3-difluoro-pyrrolidin-1-yl)-2H-[1,2,3]triazolo[4,5-d]pyrimidine], the EC50 was 65 nM on human CB1 receptors and 0.5 nM on human CB2 receptors.

Take `Cc1nnc(Cn2nc3nc(C(C)(C)C)nc(N4CCC(F)(F)C4)c3n2)o1` [Example 65, 5-tert-Butyl-7-(3,3-difluoro-pyrrolidin-1-yl)-2-(5-methyl-[1,3,4]oxadiazol-2-ylmethyl)-2H-[1,2,3]triazolo[4,5-d]pyrimidine]: the EC50 was greater than 10000 nM on human CB1 receptors and 18.6 nM at human CB2 receptors.

With `CC(C)(C)c1nc(N2CC3(COC3)C2)c2nn(Cc3ccccc3S(C)(=O)=O)nc2n1` [Example 107, 5-tert-Butyl-2-(2-methanesulfonyl-benzyl)-7-(2-oxa-6-aza-spiro[3.3]hept-6-yl)-2H-[1,2,3]triazolo[4,5-d]pyrimidine], the EC50 on human CB1 receptors is greater than 10000 nM; at human CB2 receptors, 8.4 nM.

As to `Cc1nnc(Cn2nc3nc(C(C)(C)C)nc(N4CC[C@@](C)(O)C4)c3n2)o1` [Example 128-b, (R)-1-[5-tert-Butyl-2-(5-methyl-[1,3,4]oxadiazol-2-ylmethyl)-2H-[1,2,3]triazolo[4,5-d]pyrimidin-7-yl]-3-methyl-pyrrolidin-3-ol], the EC50 at human CB1 receptors is greater than 10000 nM; at human CB2 receptors, 789 nM.

Turning to `CC(C)(C)c1nc(N2CCC(F)(F)C2)c2nn(Cc3ccc(Cl)cc3Cl)nc2n1` [Example 10, 5-tert-Butyl-2-(2,4-dichloro-benzyl)-7-(3,3-difluoro-pyrrolidin-1-yl)-2H-[1,2,3]triazolo[4,5-d]pyrimidine], the EC50 is greater than 10000 nM at human CB1 receptors and 4.1 nM at human CB2 receptors.

On to `Cc1nonc1Cn1nc2nc(C(C)(C)C)nc(N3CC[C@H](O)C3)c2n1` [Example 73, (S)-1-[5-tert-Butyl-2-(4-methyl-furazan-3-ylmethyl)-2H-[1,2,3]triazolo[4,5-d]pyrimidin-7-yl]-pyrrolidin-3-ol], for which the EC50 at human CB1 receptors was greater than 10000 nM; on human CB2 receptors it was 7.1 nM.

On to `Cn1nnnc1Cn1nc2nc(C(C)(C)C)nc(N3CCC(O)C3)c2n1` (stereo not drawn) [Example 114, 1-[5-tert-Butyl-2-(1-methyl-1H-tetrazol-5-ylmethyl)-2H-[1,2,3]triazolo[4,5-d]pyrimidin-7-yl]-pyrrolidin-3-ol], for which the EC50 on human CB1 receptors was greater than 10000 nM; on human CB2 receptors, 164 nM.

For the compound `CC(C)(C)c1nc(N2CCC(F)(F)C2)c2nn(Cc3c(Cl)ccc(Cl)c3Cl)nc2n1` [Example 55, 5-tert-Butyl-7-(3,3-difluoro-pyrrolidin-1-yl)-2-(2,3,6-trichloro-benzyl)-2H-[1,2,3]triazolo[4,5-d]pyrimidine], the EC50 on human CB1 receptors is greater than 10000 nM; on human CB2 receptors it was 8.7 nM.

As for `Cc1nonc1Cn1nc2nc(C(C)(C)C)nc(N3CCC(F)(F)C3)c2n1` [Example 39, 5-tert-Butyl-7-(3,3-difluoro-pyrrolidin-1-yl)-2-(4-methyl-furazan-3-ylmethyl)-2H-[1,2,3]triazolo[4,5-d]pyrimidine], the figures for the EC50 at human CB1 receptors and at human CB2 receptors were greater than 10000 nM and 0.2 nM, respectively.
